# Source: BindingDB's records for doi:10.1002/cbic.200400108 (Schering, 2005)
# Where “and” joins values, the source holds several entries; their conditions need not be identical. Equal entries are not always repeated.
# Assays:
# Test in all cases: Inhibition Assay
# [1] = molecular target: Cyclin-dependent kinase 2 (Homo sapiens, UniProt P24941); conditions: pH 8; 22 °C
# Text: (§1) Inhibition assay using CDK and selective kinases such as gsk3, EGFR, c-Kit, InsR and KDR.
# Insulin receptor = Insulin receptor (Homo sapiens, UniProt P06213); conditions: pH 7.5; 22 °C
# Sequence of Insulin receptor (P06213 28-758 limits assumed): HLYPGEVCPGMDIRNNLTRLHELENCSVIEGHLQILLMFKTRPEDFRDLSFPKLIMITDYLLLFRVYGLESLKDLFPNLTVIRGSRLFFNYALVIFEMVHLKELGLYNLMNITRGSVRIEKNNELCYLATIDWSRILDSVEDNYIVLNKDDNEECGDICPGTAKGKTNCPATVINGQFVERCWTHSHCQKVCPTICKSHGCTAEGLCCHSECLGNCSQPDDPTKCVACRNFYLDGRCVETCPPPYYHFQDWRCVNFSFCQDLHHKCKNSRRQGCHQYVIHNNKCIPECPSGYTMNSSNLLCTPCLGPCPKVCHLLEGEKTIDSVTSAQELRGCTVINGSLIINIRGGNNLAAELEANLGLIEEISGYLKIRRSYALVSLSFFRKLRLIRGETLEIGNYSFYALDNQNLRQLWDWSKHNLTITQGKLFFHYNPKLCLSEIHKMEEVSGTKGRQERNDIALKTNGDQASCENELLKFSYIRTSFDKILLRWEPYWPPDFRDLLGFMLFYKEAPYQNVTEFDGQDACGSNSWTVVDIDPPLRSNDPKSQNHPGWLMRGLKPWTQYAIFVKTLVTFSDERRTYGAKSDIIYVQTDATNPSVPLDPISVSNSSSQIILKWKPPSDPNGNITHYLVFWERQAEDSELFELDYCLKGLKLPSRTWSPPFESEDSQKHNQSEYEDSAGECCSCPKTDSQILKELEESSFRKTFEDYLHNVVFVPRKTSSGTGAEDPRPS
# Sequence of Insulin receptor (P06213 763-1382 limits assumed): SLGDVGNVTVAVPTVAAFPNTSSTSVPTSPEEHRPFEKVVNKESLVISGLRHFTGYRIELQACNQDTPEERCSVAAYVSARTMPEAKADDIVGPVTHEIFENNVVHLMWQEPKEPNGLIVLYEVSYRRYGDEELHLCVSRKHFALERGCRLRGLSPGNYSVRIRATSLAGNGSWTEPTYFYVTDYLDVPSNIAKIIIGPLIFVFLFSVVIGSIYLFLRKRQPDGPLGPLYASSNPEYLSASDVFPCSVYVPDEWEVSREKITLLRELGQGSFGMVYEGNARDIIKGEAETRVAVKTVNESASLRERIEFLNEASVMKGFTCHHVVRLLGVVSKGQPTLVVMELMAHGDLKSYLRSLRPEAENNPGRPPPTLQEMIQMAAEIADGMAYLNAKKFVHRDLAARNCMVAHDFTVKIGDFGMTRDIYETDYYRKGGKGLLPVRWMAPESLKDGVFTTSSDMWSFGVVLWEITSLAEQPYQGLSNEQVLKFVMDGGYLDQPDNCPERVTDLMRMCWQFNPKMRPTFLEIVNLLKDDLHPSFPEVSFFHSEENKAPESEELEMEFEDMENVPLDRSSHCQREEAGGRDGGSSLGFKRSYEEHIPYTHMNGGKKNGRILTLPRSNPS
# Text: as §1
# [2] = molecular target: Epidermal growth factor receptor (Homo sapiens, UniProt P00533); conditions: pH 7; 22 °C
# Sequence of Epidermal growth factor receptor (P00533 whole entry): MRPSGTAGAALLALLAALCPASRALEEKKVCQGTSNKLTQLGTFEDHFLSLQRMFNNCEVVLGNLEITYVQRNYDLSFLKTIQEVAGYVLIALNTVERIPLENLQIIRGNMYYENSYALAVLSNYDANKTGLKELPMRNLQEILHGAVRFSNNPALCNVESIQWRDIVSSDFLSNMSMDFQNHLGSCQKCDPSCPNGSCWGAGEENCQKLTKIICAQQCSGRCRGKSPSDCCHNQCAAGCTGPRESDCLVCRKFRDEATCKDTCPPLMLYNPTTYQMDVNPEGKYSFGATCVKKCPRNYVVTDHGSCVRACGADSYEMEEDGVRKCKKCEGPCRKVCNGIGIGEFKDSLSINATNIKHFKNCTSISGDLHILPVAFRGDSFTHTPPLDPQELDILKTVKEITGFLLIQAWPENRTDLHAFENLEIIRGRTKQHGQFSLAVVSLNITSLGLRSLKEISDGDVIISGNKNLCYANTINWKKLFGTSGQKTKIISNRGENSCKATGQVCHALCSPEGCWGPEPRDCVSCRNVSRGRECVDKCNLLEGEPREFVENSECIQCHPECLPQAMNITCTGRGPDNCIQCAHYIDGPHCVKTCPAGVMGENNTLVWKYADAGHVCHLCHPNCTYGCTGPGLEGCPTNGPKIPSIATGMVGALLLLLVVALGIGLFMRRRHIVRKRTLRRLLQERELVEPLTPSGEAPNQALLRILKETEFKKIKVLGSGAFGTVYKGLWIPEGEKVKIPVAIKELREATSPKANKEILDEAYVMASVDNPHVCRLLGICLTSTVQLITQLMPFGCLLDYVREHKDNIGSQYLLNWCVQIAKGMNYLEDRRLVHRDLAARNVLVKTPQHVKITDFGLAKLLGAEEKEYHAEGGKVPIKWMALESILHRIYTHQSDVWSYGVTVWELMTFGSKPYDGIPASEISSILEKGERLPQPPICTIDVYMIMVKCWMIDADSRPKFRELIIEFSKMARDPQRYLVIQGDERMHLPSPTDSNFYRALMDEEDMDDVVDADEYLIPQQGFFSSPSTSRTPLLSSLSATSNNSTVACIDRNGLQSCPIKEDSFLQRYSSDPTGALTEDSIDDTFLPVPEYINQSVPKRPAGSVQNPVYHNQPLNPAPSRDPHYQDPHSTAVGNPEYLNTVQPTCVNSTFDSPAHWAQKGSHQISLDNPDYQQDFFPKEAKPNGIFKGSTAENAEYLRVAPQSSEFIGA
# Text: as §1
# [3] = molecular target: Vascular endothelial growth factor receptor 2 (Homo sapiens, UniProt P35968); conditions: pH 7; 22 °C
# Sequence of Vascular endothelial growth factor receptor 2 (P35968 whole entry): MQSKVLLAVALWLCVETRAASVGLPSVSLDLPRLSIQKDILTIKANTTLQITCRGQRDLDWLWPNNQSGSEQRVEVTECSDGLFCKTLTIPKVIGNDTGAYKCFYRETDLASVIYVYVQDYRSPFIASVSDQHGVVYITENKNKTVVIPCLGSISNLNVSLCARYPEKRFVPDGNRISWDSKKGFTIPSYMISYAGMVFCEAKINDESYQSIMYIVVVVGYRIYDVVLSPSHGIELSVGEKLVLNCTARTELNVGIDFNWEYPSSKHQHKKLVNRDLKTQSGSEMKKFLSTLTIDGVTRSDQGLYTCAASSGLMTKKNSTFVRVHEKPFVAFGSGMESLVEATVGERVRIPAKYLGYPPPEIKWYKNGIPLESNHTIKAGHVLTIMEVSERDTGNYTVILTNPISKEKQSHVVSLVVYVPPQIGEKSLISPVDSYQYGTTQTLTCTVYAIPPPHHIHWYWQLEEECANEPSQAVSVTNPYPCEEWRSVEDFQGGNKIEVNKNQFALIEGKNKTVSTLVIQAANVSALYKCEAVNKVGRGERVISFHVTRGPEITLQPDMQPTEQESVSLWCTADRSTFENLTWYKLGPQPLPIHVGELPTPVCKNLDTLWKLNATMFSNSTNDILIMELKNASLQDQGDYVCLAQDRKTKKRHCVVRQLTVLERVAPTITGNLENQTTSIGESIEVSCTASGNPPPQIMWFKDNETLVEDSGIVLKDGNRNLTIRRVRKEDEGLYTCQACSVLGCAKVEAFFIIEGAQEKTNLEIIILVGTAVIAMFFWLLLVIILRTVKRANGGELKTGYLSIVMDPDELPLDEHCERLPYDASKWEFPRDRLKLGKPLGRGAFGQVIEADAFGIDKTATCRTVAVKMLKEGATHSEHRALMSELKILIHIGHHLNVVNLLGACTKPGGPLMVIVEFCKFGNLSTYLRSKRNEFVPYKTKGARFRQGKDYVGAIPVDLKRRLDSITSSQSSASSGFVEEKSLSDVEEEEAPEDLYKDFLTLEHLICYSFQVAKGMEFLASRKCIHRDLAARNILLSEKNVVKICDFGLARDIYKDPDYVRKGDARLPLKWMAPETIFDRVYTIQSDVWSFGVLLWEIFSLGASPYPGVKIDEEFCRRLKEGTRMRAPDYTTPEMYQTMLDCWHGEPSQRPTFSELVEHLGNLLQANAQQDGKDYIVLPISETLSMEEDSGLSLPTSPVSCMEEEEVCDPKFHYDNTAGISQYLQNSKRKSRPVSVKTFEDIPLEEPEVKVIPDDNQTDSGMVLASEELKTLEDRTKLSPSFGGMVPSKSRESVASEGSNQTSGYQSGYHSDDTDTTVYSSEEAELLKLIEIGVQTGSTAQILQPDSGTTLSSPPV
# Text: as §1
Compound,IC50 [1],IC50 (Insulin receptor) [nM],IC50 [2] [nM],IC50 [3] [nM]
"O=C1Nc2ccc(S(=O)(=O)NCCO)cc2C1=C1Nc2ccccc2C1=O [Indirubin derivative, 33]",80 nM,,,
"CN(C)S(=O)(=O)c1ccc2c(c1)C(C1=Nc3ccccc3C1(O)C(O)CO)C(=O)N2 (stereo unspecified) [Indirubin derivative, 31b]",3000 nM and > 10000 nM,,,
"CN(C)C1CCN(S(=O)(=O)c2ccc3c(c2)C(=C2Nc4ccccc4C2=O)C(=O)N3)CC1 [Indirubin derivative, 36 (X=O)]",20 nM,,,
"O=C(O)CCNS(=O)(=O)c1ccc2c(c1)C(=C1Nc3ccccc3C1=O)C(=O)N2 [Indirubin derivative, 34]",1500 nM,,,
"C=CCC1(O)C(C2C(=O)Nc3ccc(S(=O)(=O)N(C)CCN(C)C)cc32)=Nc2ccccc21 (stereo unspecified) [Indirubin derivative, 30b]",,> 10000,> 10000,> 10000
O=C1Nc2ccc(Br)cc2C1=C1Nc2ccccc2C1=O,,> 10000,> 10000,> 10000
"CN(C[C@H](O)[C@@H](O)[C@H](O)[C@H](O)CO)S(=O)(=O)c1ccc2c(c1)C(=C1Nc3ccccc3C1=O)C(=O)N2 [Indirubin derivative, 35]",450 nM,,,
"CN(C)CCN(C)S(=O)(=O)c1ccc2c(c1)C(c1[nH]c3ccccc3c1N=O)C(=O)N2 (stereo unspecified) [Indirubin derivative, 23]",40 nM,,,
"CN(C)S(=O)(=O)c1ccc2c(c1)C(=C1Nc3ccccc3C1=O)C(=O)N2 [Indirubin derivative, 8]",40 nM,,,
"CN(C)S(=O)(=O)c1ccc2c(c1)/C(=C1/Nc3ccccc3/C1=N\OCCO[C@@H]1O[C@H](CO)[C@@H](O)[C@H](O)[C@H]1O)C(=O)N2 [Indirubin derivative, 36 (X=NO)]",80 nM,,,
"CN(C)CCN(C)S(=O)(=O)c1ccc2c(c1)C(=C1Nc3ccccc3C1=O)C(=O)N2 [Indirubin derivative, 22]",10 nM,,,
"O=C1Nc2ccc(S(=O)(=O)O)cc2C1=C1Nc2ccccc2C1=O [Indirubin derivative, 20]",,> 10000,> 10000,> 10000
"CN(C)CCN(C)S(=O)(=O)c1ccc2c(c1)C(C1=Nc3ccccc3C1(C)O)C(=O)N2 (stereo unspecified) [Indirubin derivative, 28b]",,> 10000,> 10000,> 10000
"CN(C)CCN(C)S(=O)(=O)c1ccc2c(c1)/C(=C1/Nc3ccccc3/C1=N\OCCO[C@@H]1O[C@H](CO)[C@@H](O)[C@H](O)[C@H]1O)C(=O)N2 [Indirubin derivative, 25]",90 nM,,,
"CN(C)S(=O)(=O)c1ccc2c(c1)C(C1=Nc3ccccc3C1(C)O)C(=O)N2 (stereo unspecified) [Indirubin derivative, 27b]",70 nM and 600 nM,,,
"CC1(O)C(C2C(=O)Nc3ccc(S(=O)(=O)N4CCC(O)CC4)cc32)=Nc2ccccc21 (stereo unspecified) [Indirubin derivative, 37]",1600 nM,,,
"CC1(O)C(C2C(=O)Nc3ccc(Br)cc32)=Nc2ccccc21 (stereo unspecified) [Indirubin derivative, 26]",3000 nM,,,
"O=C1Nc2ccccc2/C1=C1/Nc2ccccc2C1=O [2-[(3Z)-2-oxo-2,3-dihydro-1H-indol-3-ylidene]-2,3-dihydro-1H-indol-3-one]",2000 nM,,,
